According to US20260373078A1 (NANJING QINLING PHARMACEUTICAL TECHNOLOGY COMPANY LIMITED, priority 2023, published 2026):

Key:
[1] = test system: human glioma cancer cells; settings: Tsai et al., Int J Mol Sci. 2012; cited from earlier work
[2] = Water solubility of wogonin / uniform solution with arginine; type: physicochemical; settings: arginine 2%-10% (w/v)
Source text: In addition, in order to ensure that a pH of the solution remains stable within a range of 7.0-11.0, an appropriate amount of citric acid may need to be added to the formulation, with a content of 0.01%-0.05% (w/v).

For `COc1c(O)cc(O)c2c(=O)cc(-c3ccccc3)oc12` [Wogonin, wogonin], the “reactive oxygen species production and cell apoptosis” value [1] is listed as “induces reactive oxygen species production and cell apoptosis” and the “content of wogonin at which a uniform solution may be obtained” value [2] is listed as 0.1-5.0 % (w/v).
